Laboratory results reported in ChEMBL document CHEMBL4014306, “Pyrazolopyrimidines as Potent Stimulators for Transient Receptor Potential Canonical 3/6/7 Channels” (J Med Chem, 2017).
Calls of active or inactive are those of the source. The rule behind the calls is not given here.

Legend:
[1] = target: T1, Short transient receptor potential channel 6 (Mus musculus, UniProt Q61143); experiment: Agonist activity at mouse TRPC6 expressed in HEK293 cells co-expressing Gq11-PLCbeta fused M5 receptor assessed as increase in intracellular calcium level measured for 2.5 mins by Fluo-8-AM dye-based fluorescence assay; assay type: cell-based; conditions: read-out: EC50
T1 sequence (Q61143 whole entry): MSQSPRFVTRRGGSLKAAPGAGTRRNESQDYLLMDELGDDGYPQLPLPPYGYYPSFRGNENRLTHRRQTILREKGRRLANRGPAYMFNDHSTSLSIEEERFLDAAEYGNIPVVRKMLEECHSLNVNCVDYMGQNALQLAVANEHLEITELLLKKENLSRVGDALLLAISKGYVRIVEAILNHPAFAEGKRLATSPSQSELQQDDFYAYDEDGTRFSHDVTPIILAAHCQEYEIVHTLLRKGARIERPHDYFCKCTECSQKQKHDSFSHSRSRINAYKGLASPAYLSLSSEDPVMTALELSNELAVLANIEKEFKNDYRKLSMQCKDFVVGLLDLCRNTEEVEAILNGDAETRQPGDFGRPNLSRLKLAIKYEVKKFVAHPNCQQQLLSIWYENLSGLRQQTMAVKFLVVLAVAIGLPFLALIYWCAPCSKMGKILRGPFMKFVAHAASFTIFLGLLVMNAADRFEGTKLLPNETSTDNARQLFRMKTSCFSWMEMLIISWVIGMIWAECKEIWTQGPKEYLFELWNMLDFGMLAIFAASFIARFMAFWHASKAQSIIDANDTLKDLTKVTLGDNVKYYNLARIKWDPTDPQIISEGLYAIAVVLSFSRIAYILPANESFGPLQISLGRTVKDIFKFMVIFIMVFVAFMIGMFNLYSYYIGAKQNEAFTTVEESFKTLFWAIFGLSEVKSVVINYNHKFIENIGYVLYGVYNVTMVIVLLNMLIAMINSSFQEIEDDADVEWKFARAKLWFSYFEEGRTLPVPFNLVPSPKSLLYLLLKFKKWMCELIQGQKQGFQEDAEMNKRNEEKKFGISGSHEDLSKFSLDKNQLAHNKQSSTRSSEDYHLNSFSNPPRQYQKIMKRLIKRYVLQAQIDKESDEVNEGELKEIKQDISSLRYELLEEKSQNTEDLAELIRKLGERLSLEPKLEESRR

[2] = target: T2, Transient receptor potential cation channel subfamily M member 5 (Homo sapiens) (UniProt Q9NZQ8); experiment: Agonist activity at human TRPM5 expressed in HEK293 cells assessed as induction of membrane depolarization at 33 uM measured for 2.5 mins by FLIPR membrane potential dye-based fluorescence assay; assay type: cell-based
T2 sequence (whole entry): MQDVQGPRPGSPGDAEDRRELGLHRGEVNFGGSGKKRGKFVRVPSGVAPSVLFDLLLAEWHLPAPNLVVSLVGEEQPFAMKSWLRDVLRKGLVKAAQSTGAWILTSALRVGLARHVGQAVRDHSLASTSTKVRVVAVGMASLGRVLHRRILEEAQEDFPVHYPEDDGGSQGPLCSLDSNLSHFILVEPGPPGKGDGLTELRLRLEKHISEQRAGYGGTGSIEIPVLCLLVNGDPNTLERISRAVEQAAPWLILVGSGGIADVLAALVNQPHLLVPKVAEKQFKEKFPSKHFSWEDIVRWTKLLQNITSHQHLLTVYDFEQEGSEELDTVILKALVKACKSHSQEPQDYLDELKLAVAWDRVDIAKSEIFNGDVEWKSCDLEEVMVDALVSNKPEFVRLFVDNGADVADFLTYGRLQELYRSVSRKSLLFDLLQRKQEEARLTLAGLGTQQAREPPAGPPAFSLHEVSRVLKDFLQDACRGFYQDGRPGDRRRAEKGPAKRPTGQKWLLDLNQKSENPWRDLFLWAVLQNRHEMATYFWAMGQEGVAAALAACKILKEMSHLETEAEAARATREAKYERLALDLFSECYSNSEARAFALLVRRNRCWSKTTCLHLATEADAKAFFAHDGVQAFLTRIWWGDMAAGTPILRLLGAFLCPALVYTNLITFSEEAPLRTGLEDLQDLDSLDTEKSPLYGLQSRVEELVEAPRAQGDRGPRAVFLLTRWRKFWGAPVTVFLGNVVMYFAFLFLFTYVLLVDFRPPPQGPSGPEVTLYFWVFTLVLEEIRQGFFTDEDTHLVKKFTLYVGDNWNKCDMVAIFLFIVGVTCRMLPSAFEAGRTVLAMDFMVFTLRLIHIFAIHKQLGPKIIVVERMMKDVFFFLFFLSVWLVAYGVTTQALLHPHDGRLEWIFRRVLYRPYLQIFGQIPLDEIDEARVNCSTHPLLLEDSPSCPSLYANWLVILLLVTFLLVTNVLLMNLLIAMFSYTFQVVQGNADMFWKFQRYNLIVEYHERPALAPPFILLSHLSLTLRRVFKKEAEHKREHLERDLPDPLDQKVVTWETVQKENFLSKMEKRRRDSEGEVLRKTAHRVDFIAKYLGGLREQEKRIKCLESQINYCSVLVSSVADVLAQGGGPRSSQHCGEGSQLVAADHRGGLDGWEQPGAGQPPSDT

EC50 [1]	Activity [2]	SMILES
7.79 µM	inactive	Cc1nn2c(O)cc(C3CCN(C(=O)OCc4ccccc4)CC3)nc2c1-c1ccc(Cl)cc1
–	inactive	CCOC(=O)N1CCC(c2cc(O)n3nc(C)c(-c4ccc(C(F)(F)F)cc4)c3n2)CC1
3.91 µM	inactive	Cc1nn2c(O)cc(C3CCN(C(=O)OCc4ccccc4)CC3)nc2c1-c1ccc(F)cc1

SMILES	EC50 [1]	Activity [2]
CCOC(=O)N1CCC(c2cc(O)n3nc(C)c(-c4ccc(F)cc4)c3n2)CC1	4.66 µM	inactive
